{"source": "patent US20250154169A1", "about": "“COMPOUNDS AND METHODS FOR MODULATING SPLICING” (REMIX THERAPEUTICS INC., priority 2021, published 2025)", "assay_type_in_all_cases": "cell-based, human", "key": {"MYB mRNA": {"tested_on": "MYB mRNA", "assay": "Splicing RT-qPCR assay, MYB canonical (CJ) and alternative (AJ) junction mRNA", "settings": "Homo sapiens; for AC50: read-out: MYB AJ (AC50, increase in alternative junction mRNA)", "procedure,_shortened": "(§1)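 Canonical (CJ) and alternative-exon (AJ) junction mRNAs quantified by one-step RT-qPCR in cell lysates, normalized to housekeeping PPIA for A673 and GAPDH or GUSB for K562. Cells were exposed 24 h at 37 °C to 11-point 3-fold compound series from 10 uM final, with DMSO at or below 0.25%.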"}, "Target C mRNA": {"tested_on": "Target C mRNA", "assay": "Splicing RT-qPCR gene panel, Target C canonical junction (CJ) mRNA", "settings": "Homo sapiens, Tables 4A/4B, read-out: Target C (IC50, decrease in CJ mRNA, gene panel)", "protocol": "(§2) Compounds described herein were used to modulate RNA transcript abundance in cells. The expression of a target mRNA was measured by detecting the formation of an exon-exon junction in the canonical transcript (CJ). A compound mediated exon-inclusion event was detected by observing an increase in formation of a new junction with an alternative exon (AJ). Real-time qPCR assays were used to detect these splicing switches and interrogate the potency of various compounds towards different target genes. A high-throughput real time quantitative PCR (RT-qPCR) assay was developed to measure these two isoforms of the mRNA (CJ and AJ) for exemplary genes, such as HTT, SMN2, and MYB, together with a control housekeeping gene, GAPDH or GUSB or PPIA, used for normalization. Briefly, the A673 or K562 cell line was treated with various compounds described herein (e.g., compounds of Formula (I)). After treatment, the levels of the HTT, MYB, or SMN2 mRNA targets were determined from each sample of cell lysate by cDNA synthesis followed by qPCR.\n(§3) The A673 cell line was cultured in DMEM with 10% FBS. Cells were diluted with full growth media and plated in a 96-well plate (15,000 cells in 100 ul media per well). The plate was incubated at 37° C. with 5% CO2 for 24 hours to allow cells to adhere. An 11-point 3-fold serial dilution of the compounds was made in DMSO then diluted in media in an intermediate plate. Compounds were transferred from the intermediate plate to the cell plate with the top dose at a final concentration of 10 uM in the well. Final DMSO concentration was kept at or below 0.25%. The cell plate was returned to the incubator at 37° C. with 5% CO2 for an additional 24 hours.\n(§4) The K562 cell line was cultured in IMDM with 10% FBS. For K562, cells were diluted with full growth media and plated in either a 96-well plate (50,000 cells in 50 uL media per well) or a 384-well plate (8,000-40,000 cells in 45 uL media per well). An 11-point 3-fold serial dilution of the compounds were made in DMSO then diluted in media in an intermediate plate. Compound was transferred from the intermediate plate to the cell plate with the top dose at a final concentration of 10 uM in the well. Final DMSO concentration was kept at or below 0.25%. Final volume was 100 uL for 96-well plate and 50 uL for 384-well plate. The cell plate was then placed in an incubator at 37° C. with 5% CO2 for 24 hours.\n(§5) The cells were then gently washed with 50 uL-100 uL cold PBS before proceeding to addition of lysis buffer. 30 uL-50 uL of room temperature lysis buffer with DNAse I (and optionally RNAsin) was added to each well. Cells were shaken/mixed thoroughly at room temperature for 5-10 minutes for lysis to take place and then 3 uL-5 uL of room temperature stop solution was added and wells were shaken/mixed again. After 2-5 minutes, the cell lysate plate was transferred to ice for RT-qPCR reaction setup. The lysates could also be frozen at −80° C. for later use.\n(§6) In some cases, a direct lysis buffer was used. An appropriate volume of 3× lysis buffer (10 mM Tris, 150 mM NaCl, 1.5%-2.5% Igepal and 0.1-1 U/uL RNAsin, pH 7.4) was directly added to either K562 or A673 cells in media and mixed by pipetting 3 times. The plates were then incubated at room temperature with shaking/rocking for 20-50 minutes to allow for lysis to take place. After this time, the cell lysate plate was transferred to ice to set up for the RT-qPCR reactions. The lysates could also be frozen at −80° C. for later use.\n(§7) To set up 10 uL RT-qPCR reactions, cell lysates were transferred to 384-well qPCR plates containing the master mix according to the table below. The plates were sealed, gently vortexed, and spun down before the run. The volumes were adjusted accordingly in some instances where the reaction was carried in 20 μL. The table below summarizes the components of the RT-qPCR reactions:\n(§8) The RT-qPCR reaction was performed using a QuantStudio (ThermoFisher) under the following fast cycling conditions. […]"}, "SMN2 mRNA": {"tested_on": "SMN2 mRNA", "assay": "Splicing RT-qPCR gene panel, SMN2 canonical junction (CJ) mRNA", "settings": "Homo sapiens, Tables 4A/4B, read-out: SMN2 (IC50, decrease in CJ mRNA, gene panel)", "protocol": "as §2, §3, §4, §5, §6, §7, §8"}, "HTT mRNA [1]": {"tested_on": "HTT mRNA", "assay": "Splicing RT-qPCR gene panel, HTT canonical junction (CJ) mRNA", "settings": "Homo sapiens, Tables 4A/4B, read-out: HTT (IC50, decrease in CJ mRNA, gene panel)", "protocol": "as §2, §3, §4, §5, §6, §7, §8"}, "HTT mRNA [2]": {"tested_on": "HTT mRNA", "assay": "Splicing RT-qPCR assay, HTT canonical (CJ) and alternative (AJ) junction mRNA", "settings": "Homo sapiens, A673 or K562 cells, 24 hours compound treatment; for IC50: 24 h, read-out: HTT CJ (IC50, decrease in canonical junction mRNA); for AC50: read-out: HTT AJ (AC50, increase in alternative junction mRNA)", "procedure,_shortened": "as §1"}, "[3]": {"settings": "Tables 4A/4B, canonical junction qPCR panel, read-out: MYB (IC50, decrease in CJ mRNA, gene panel)"}, "[4]": {"settings": "24 h, A673 or K562 cells, 24 hours compound treatment, RT-qPCR"}, "[5]": {"settings": "24 h, A673 or K562 cells, 24 hours compound treatment, RT-qPCR, read-out: MYB CJ (IC50, decrease in canonical junction mRNA)"}}, "note": "Like-named read-outs stand apart in the source and are kept apart here."}
{"smiles": "C=Cn1cc2c(N3CCNCC3)ccc(C(=O)Nc3cc(F)c4nc(C)cn4c3)c2n1", "note": "[Compound 363, 2-ethenyl-N-{8-fluoro-2-methylimidazo[1,2-a]pyridin-6-yl}-4-(piperazin-1-yl) indazole-7-carboxamide]", "values": [{"measurement": "IC50", "setting": "MYB mRNA; [3]", "result": "< 100", "unit": "nM"}, {"measurement": "IC50", "setting": "Target C mRNA", "result": "< 100", "unit": "nM"}, {"measurement": "IC50", "setting": "SMN2 mRNA", "result": "< 100", "unit": "nM"}, {"measurement": "IC50", "setting": "HTT mRNA [1]", "result": "< 100", "unit": "nM"}]}
{"smiles": "CCNC1CCN(c2ccc(C(=O)Nc3cc(F)c4nc(C)cn4c3)c3nn(C)cc23)CC1", "note": "[Compound 252]", "values": [{"measurement": "IC50", "setting": "MYB mRNA; [3]", "result": "< 100", "unit": "nM"}, {"measurement": "IC50", "setting": "Target C mRNA", "result": "100 to 1000", "unit": "nM"}, {"measurement": "IC50", "setting": "SMN2 mRNA", "result": "< 100", "unit": "nM"}, {"measurement": "IC50", "setting": "HTT mRNA [1]", "result": "100 to 1000", "unit": "nM"}]}
{"smiles": "C/C=C/n1cc2c(N3CCNCC3)ccc(C(=O)Nc3cc(F)c4nc(C)cn4c3)c2n1", "note": "[Compound 445, N-{8-fluoro-2-methylimidazo[1,2-a]pyridin-6-yl}-4-(piperazin-1-yl)-2-[(1E)-prop-1-en-1-yl]indazole-7-carboxamide]", "values": [{"measurement": "IC50", "setting": "MYB mRNA; [3]", "result": "< 100", "unit": "nM"}, {"measurement": "IC50", "setting": "Target C mRNA", "result": "100 to 1000", "unit": "nM"}, {"measurement": "IC50", "setting": "SMN2 mRNA", "result": "< 100", "unit": "nM"}, {"measurement": "IC50", "setting": "HTT mRNA [1]", "result": "< 100", "unit": "nM"}]}
{"smiles": "Cc1cn2cc(NC(=O)c3c(F)cc(N4CCNCC4)c4cn(C)nc34)cc(F)c2n1", "note": "[Compound 361, 6-fluoro-N-{8-fluoro-2-methylimidazo[1,2-a]pyridin-6-yl}-2-methyl-4-(piperazin-1-yl) indazole-7-carboxamide]", "values": [{"measurement": "IC50", "setting": "MYB mRNA; [3]", "result": "< 100", "unit": "nM"}, {"measurement": "IC50", "setting": "Target C mRNA", "result": "< 100", "unit": "nM"}, {"measurement": "IC50", "setting": "SMN2 mRNA", "result": "< 100", "unit": "nM"}, {"measurement": "IC50", "setting": "HTT mRNA [1]", "result": "< 100", "unit": "nM"}]}
{"smiles": "Cc1cn2cc(NC(=O)c3ccc(N4CCN5CCCC5C4)c4cn(C)nc34)cc(F)c2n1", "note": "(stereo not drawn) [Compound 250]", "values": [{"measurement": "IC50", "setting": "MYB mRNA; [3]", "result": "< 100", "unit": "nM"}, {"measurement": "IC50", "setting": "Target C mRNA", "result": "100 to 1000", "unit": "nM"}, {"measurement": "IC50", "setting": "SMN2 mRNA", "result": "< 100", "unit": "nM"}, {"measurement": "IC50", "setting": "HTT mRNA [1]", "result": "< 100", "unit": "nM"}]}
{"smiles": "Cc1cn2cc(NC(=O)c3ccc(N4CCC(NC(C)(C)C)C4)c4cc(C)oc34)cc(F)c2n1", "note": "(stereo not drawn) [Compound 203]", "values": [{"measurement": "IC50", "setting": "MYB mRNA; [3]", "result": "100 to 1000", "unit": "nM"}, {"measurement": "IC50", "setting": "Target C mRNA", "result": "> 10000", "unit": "nM"}, {"measurement": "IC50", "setting": "SMN2 mRNA", "result": "< 100", "unit": "nM"}, {"measurement": "IC50", "setting": "HTT mRNA [1]", "result": "> 10000", "unit": "nM"}]}
{"smiles": "C=C(C)n1cc2c(N3CCNCC3)ccc(C(=O)Nc3cc(F)c4nc(C)cn4c3)c2n1", "note": "[Compound 440, N-{8-fluoro-2-methylimidazo[1,2-a]pyridin-6-yl}-4-(piperazin-1-yl)-2-(prop-1-en-2-yl) indazole-7-carboxamide]", "values": [{"measurement": "IC50", "setting": "MYB mRNA; [3]", "result": "< 100", "unit": "nM"}, {"measurement": "IC50", "setting": "Target C mRNA", "result": "1000 to 10000", "unit": "nM"}, {"measurement": "IC50", "setting": "SMN2 mRNA", "result": "< 100", "unit": "nM"}, {"measurement": "IC50", "setting": "HTT mRNA [1]", "result": "< 100", "unit": "nM"}]}
{"smiles": "CCn1cc2c(N3CCC(CC)(N(C)C)CC3)ccc(C(=O)Nc3cc(F)c4nc(C)cn4c3)c2n1", "note": "[Compound 508, 4-[4-(dimethylamino)-4-ethylpiperidin-1-yl]-2-ethyl-N-{8-fluoro-2-methylimidazo[1,2-a]pyridin-6-yl}indazole-7-carboxamide]", "values": [{"measurement": "IC50", "setting": "HTT mRNA [2]", "result": "< 100", "unit": "nM"}, {"measurement": "AC50", "setting": "HTT mRNA [2]", "result": "100 to 1000", "unit": "nM"}, {"measurement": "AC50", "setting": "MYB mRNA; [4]", "result": "< 100", "unit": "nM"}, {"measurement": "IC50", "setting": "MYB mRNA; [5]", "result": "< 100", "unit": "nM"}]}
{"smiles": "Cc1cn2cc(NC(=O)c3ccc(N4CC[C@@H](NC5C6COCC65)C4)c4cn(C)nc34)cc(F)c2n1", "note": "(stereo partly drawn) [Compound 633]", "values": [{"measurement": "IC50", "setting": "HTT mRNA [2]", "result": "1000 to 10000", "unit": "nM"}, {"measurement": "AC50", "setting": "HTT mRNA [2]", "result": "> 10000", "unit": "nM"}, {"measurement": "AC50", "setting": "MYB mRNA; [4]", "result": "100 to 1000", "unit": "nM"}, {"measurement": "IC50", "setting": "MYB mRNA; [5]", "result": "100 to 1000", "unit": "nM"}]}
